Experimental data taken from patent publication US20250109139A1, “TRICYCLIC COMPOUND, AND PREPARATION METHOD THEREFOR AND USE THEREOF” (SHANGHAITECH UNIVERSITY, priority 2022, published 2025).
Where two headings read alike, the source gives them in different places.

Key:
dopamine D2 receptors [1] = target: T1, dopamine D2 receptors (Homo sapiens (Human), UniProt P14416); experiment: Dopamine D2 receptor radioligand competition binding assay ([3H]-Methylspiperone); conditions: [3H]-Methylspiperone 0.3 to 0.5 nM, 293T membranes
T1 sequence (P14416 whole entry): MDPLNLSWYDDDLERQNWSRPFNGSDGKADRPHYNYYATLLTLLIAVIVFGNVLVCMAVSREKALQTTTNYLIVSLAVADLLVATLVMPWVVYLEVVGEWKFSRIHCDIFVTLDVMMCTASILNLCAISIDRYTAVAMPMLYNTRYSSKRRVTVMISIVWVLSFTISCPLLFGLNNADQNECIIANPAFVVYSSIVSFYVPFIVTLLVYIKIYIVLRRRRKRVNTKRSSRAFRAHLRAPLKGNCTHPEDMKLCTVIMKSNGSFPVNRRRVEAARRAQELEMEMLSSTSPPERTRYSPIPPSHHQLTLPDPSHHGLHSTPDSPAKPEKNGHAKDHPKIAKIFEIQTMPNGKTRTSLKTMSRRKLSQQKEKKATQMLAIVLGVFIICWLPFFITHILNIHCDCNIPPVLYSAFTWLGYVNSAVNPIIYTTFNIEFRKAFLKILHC
Procedure: The affinity of the compounds of the present disclosure for dopamine D2 receptors was determined by a radioligand competition binding assay.
In the first step, a cell membrane component containing specific dopamine D2 receptors was prepared. A 10 cm culture dish was used for transfection with […] of dopamine D2 receptors and 40 μL of polyethylenimine (PEI hereafter). […] A vacuum pump was used to suck off the culture medium, 3 mL of lysis buffer was added to each culture dish, and the cells were placed in a 4° C. cold room for 10 minutes. After the cells were detached, the cells were transferred to a 15 mL centrifuge tube and centrifuged at 1500 rpm for 5 minutes at 4° C., and the supernatant was discarded. The cell pellet was transferred to a tissue homogenizer, and 3 mL of lysis buffer was added and fully ground until the cells were broken. Then, cell suspension was equally aliquoted into several EP tubes, centrifuged at 12000 rpm for 5 minutes at 4° C., and the supernatant was discarded. The precipitate was the cell membrane component containing the dopamine D2 receptors.
First, a standard binding buffer was added to the cell membrane component containing the dopamine D2 receptors, and the cell membrane was disrupted and resuspended with an electric tissue homogenizer. 30 μL of membrane protein suspension was added to each well of a 96-well plate. Then, 30 μL of different drugs were added to the 96-well plate sequentially from bottom to top to ensure that the final drug concentrations were 10^−5 M, 10^−6 M, 10^−7 M, 10^−8 M, 10^−9 M, and 0 M, with two replicates per treatment. Next, 30 μL of [3H]-Methylspiperone was added to each well of the 96-well plate. The plate was incubated at room temperature in the dark for 2 hours. Detection was conducted. The machine readout value reflected the amount of [3H]-Methylspiperone bound on the membrane, and after further data processing, the affinity Ki values of different compounds for the dopamine D2 receptors were obtained.

5-HT2A receptors = 5-HT2A receptors (Homo sapiens (Human), UniProt P28223); experiment: 5-HT2A receptor radioligand competition binding assay ([3H]-ketanserin)
5-HT2A receptors, sequence (P28223 whole entry): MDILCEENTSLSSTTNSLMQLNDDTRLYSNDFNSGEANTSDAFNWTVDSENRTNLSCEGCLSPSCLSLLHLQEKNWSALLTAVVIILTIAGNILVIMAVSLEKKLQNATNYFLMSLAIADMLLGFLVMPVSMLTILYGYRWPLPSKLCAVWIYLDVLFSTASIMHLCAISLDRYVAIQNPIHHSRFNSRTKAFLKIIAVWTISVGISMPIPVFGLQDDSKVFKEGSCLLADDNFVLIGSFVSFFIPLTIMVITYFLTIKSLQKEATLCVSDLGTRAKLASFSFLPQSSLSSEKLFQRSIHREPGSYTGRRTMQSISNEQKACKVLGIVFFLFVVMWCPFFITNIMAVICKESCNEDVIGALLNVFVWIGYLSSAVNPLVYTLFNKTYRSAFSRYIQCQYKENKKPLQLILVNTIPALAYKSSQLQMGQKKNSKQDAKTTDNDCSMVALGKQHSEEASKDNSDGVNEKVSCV
Procedure: The affinity of the compounds of the present disclosure for 5-HT2A receptors was determined by a radioligand competition binding assay. In the first step, a cell membrane component containing specific 5-HT2A receptor was prepared. A 10 cm dish was used for transfection with […] of 5-HT2A receptors and 40 μL of PEI. After 48 hours, the 10 cm dish was taken out from the cell incubator and the cultured cells had expressed the 5-HT2A receptors. A vacuum pump was used to suck off the culture medium, 3 mL of lysis buffer was added to each culture dish, and the cells were placed in a 4° C. cold room for 10 minutes. After the cells were detached, the cells were transferred to a 15 mL centrifuge tube and centrifuged at 1500 rpm for 5 minutes at 4° C., and the supernatant was discarded. The cell pellet was transferred to a tissue homogenizer, and 3 mL of lysis buffer was added and fully ground until the cells were broken. Then, cell suspension was equally aliquoted into several EP tubes, centrifuged at 12000 rpm for 5 minutes at 4° C., and the supernatant was discarded. The precipitate was the cell membrane component containing the 5-HT2A receptors. […] First, a standard binding buffer was added to the cell membrane component containing the 5-HT2A receptors, and the cell membrane was disrupted and resuspended with an electric tissue homogenizer. 30 μL of membrane protein suspension was added to each well of a 96-well plate. Then, 30 μL of different drugs were added to the 96-well plate sequentially from bottom to top to ensure that the final drug concentrations were 10^−5 M, 10^−6 M, 10^−7 M, 10^−8 M, 10^−9 M, and 0 M, with two replicates per treatment. Next, 30 μL of [^3H]-ketanserin was added to each well of the 96-well plate. The plate was incubated at room temperature in the dark for 2 hours. Detection was conducted. The machine readout value reflected the amount of [^3H]-ketanserin bound on the membrane, and after further data processing, the affinity Ki values of different compounds for the 5-HT2A receptors were obtained.

dopamine D2 receptors [2] = target: T1, dopamine D2 receptors; experiment: Dopamine D2 receptor β-arrestin2 BRET (recruitment); format: cell-based; conditions: for EC50: unit printed only in Cariprazine cell, read-out: β-arrestin2 BRET EC50; for Emax: relative to endogenous ligand dopamine, read-out: β-arrestin2 BRET Emax % ± SEM
Procedure: (§1) To examine the downstream G-protein signaling pathway mediated by dopamine D2 receptors, on the first day, a 6 cm culture dish was used for transfection with 1 μg of dopamine D2 receptors, 1 μg of Gαi1 containing C-terminal seaweed luciferase (Gαi1-Rluc), 1 μg of Gβ3, 1 μg of Gγ9 containing C-terminal green fluorescent protein (Gγ9-GFP) mixed with 16 μL of PEI. At the same time, in order to examine the downstream β-arrestin2 signaling pathway mediated by dopamine D2 receptors, on the first day, a 6 cm culture dish was used for transfection with […] of dopamine D2 receptors containing C-terminal seaweed luciferase (D2-Rluc), […] of G protein-coupled receptor kinase 2 (GRK2), […] of β-arrestin2 containing N-terminal green fluorescent protein (GFP2-ARRB2) mixed with 14 μL of PEI. The next day, the confluent cells of a 6 cm culture dish were digested and reseeded into a 96-well plate with 100 μL of culture medium added to each well. On the third day, the drugs were added for test. The 96-well plate was taken out from the cell incubator to decant the culture medium, 40 μL of the substrate coelenterazine 400a (final concentration of 5 μM) was added to each well, and then 20 μL of different drugs were added sequentially from left to right to ensure that the final concentration of the drug decreased gradually from bottom to top, with two replicates per treatment. Finally, the prepared samples were loaded on machine for test. The machine readout value reflected the recruitment of β-arrestin2 to the membrane or the dissociation of G protein trimer. The former indicated the degree of activation of the β-arrestin2 signaling pathway downstream of the dopamine D2 receptors, and the latter indicated the degree of activation of the G protein signaling pathway downstream of the dopamine D2 receptors.

[3] = target: 5-hydroxytryptamine 1A (5-HT1A) receptors (Homo sapiens (Human), UniProt P08908); experiment: 5-HT1A receptor Gαi1 BRET (G protein trimer dissociation); format: cell-based; conditions: relative to endogenous ligand 5-hydroxytryptamine
5-hydroxytryptamine 1A (5-HT1A) receptors, sequence (P08908 whole entry): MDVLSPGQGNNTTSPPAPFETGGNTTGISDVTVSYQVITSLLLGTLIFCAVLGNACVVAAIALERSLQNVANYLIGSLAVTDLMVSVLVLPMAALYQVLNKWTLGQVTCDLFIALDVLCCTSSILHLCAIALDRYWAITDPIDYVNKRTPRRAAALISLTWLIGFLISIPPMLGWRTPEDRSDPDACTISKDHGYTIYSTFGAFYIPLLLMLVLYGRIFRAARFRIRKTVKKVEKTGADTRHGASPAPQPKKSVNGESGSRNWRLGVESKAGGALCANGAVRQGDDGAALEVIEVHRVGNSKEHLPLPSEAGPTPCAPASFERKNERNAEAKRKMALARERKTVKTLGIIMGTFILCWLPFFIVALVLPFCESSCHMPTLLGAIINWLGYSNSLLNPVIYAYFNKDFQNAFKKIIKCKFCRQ

dopamine D2 receptors [4] = target: T1, dopamine D2 receptors; experiment: Dopamine D2 receptor Gαi1 BRET (G protein trimer dissociation); format: cell-based; conditions: for Emax: relative to endogenous ligand dopamine, read-out: Gαi1 BRET Emax % ± SEM
Procedure: as §1

[5] = [3H]-ketanserin, 293T membranes, read-out: Ki
[6] = read-out: Gαi1 BRET pEC50 ± SEM (converted)
[7] = unit printed only in Cariprazine cell, read-out: Gαi1 BRET EC50

| Structure (SMILES) | Ki (dopamine D2 receptors [1]; read-out: Affinity Ki) | EC50 (dopamine D2 receptors [2]) | Emax [3] | Emax (dopamine D2 receptors [2]) | Affinity pKi ± SEM (dopamine D2 receptors [1]) | also measured |
| --- | --- | --- | --- | --- | --- | --- |
| CCOc1cccc2c3c(oc12)CN(CCCCOc1ccc2ccc(=O)[nH]c2c1)CC3 [I-A16, 7-(4-(8-ethoxy-3,4-dihydrobenzofuro[2,3-c]pyridin-2(1H)-yl)butoxy)quinolin-2(1H)-one] | 16.5 nM | 11.3 nM | 85.9% | – | (7.78 ± 0.41) | Ki (5-HT2A receptors): 1320 nM; affinity for 5-HT2A receptors (in words) (5-HT2A receptors): very weak affinity; β-arrestin2 BRET pEC50 ± SEM (dopamine D2 receptors [2]): (7.94 ± 0.11) |
| CC(C)Oc1cccc2c3c(oc12)CN(CCCCOc1ccc2ccc(=O)[nH]c2c1)CC3 [I-A18, 7-(4-(8-isopropoxy-3,4-dihydrobenzofuro[2,3-c]pyridin-2(1H)-yl)butoxy)quinolin-2(1H)-one] | – | – | 81.9% | – | (7.05 ± 0.09) | – |
| COc1cccc2c3c(oc12)CN(CC1(O)CCCCC1)CC3 [I-A21, 1-((8-methoxy-3,4-dihydrobenzofuro[2,3-c]pyridin-2(1H)-yl)methyl)cyclohexan-1-ol] | 524 nM | 23.6 nM | – | 59% | (6.28 ± 0.28) | affinity for 5-HT2A receptors (in words) (5-HT2A receptors): very weak affinity; Ki (5-HT2A receptors; [5]): > 10000 nM; EC50 (dopamine D2 receptors [4]; [6]): 2.95 nM; Emax (dopamine D2 receptors [4]): 68%; EC50 (dopamine D2 receptors [4]; [7]): 4.61 nM |
| CCOc1cccc2c3c(oc12)CN(CCCCc1ccc2ccc(=O)[nH]c2c1)CC3 [I-A25] | – | 54.6 nM | 78% | 78% | – | EC50 (dopamine D2 receptors [4]; [6]): 2.04 nM; Emax (dopamine D2 receptors [4]): 40%; EC50 (dopamine D2 receptors [4]; [7]): 1.32 nM |
| CCOc1cccc2c3c(oc12)CN(CCCCOc1ccc2c(c1)NC(=O)CO2)CC3 [I-A30, 6-(4-(8-ethoxy-3,4-dihydrobenzofuro[2,3-c]pyridin-2(1H)-yl)butoxy)-2H-benzo[b][1,4]oxazin-3(4H)-one] | 151 nM | 23.7 nM | 74.5% | 52% | – | – |
| CCOc1cccc2c3c(oc12)CN(CCN1CCc2cc(C)ncc2C1=O)CC3 [I-A38, 2-(2-(8-ethoxy-3,4-dihydrobenzofuro[2,3-c]pyridin-2(1H)-yl)ethyl)-6-methyl-3,4-trihydro-2,7-naphthyridin-1(2H)-one] | – | – | – | – | – | Gαi1 BRET Emax % [3]: 116.2% |

Continued, in another order:

| Ki (dopamine D2 receptors [1]; read-out: Affinity Ki) | EC50 (dopamine D2 receptors [2]) | Emax [3] | Emax (dopamine D2 receptors [2]) | Structure (SMILES) | Affinity pKi ± SEM (dopamine D2 receptors [1]) | also measured |
| --- | --- | --- | --- | --- | --- | --- |
| 103 nM | 238 nM | – | 82% | CCOc1cccc2c3c(oc12)CN(CC1(O)CCCCC1)CC3 [I-A28, 1-((8-ethoxy-3,4-dihydrobenzofuro[2,3-c]pyridin-2(1H)-yl)methyl)cyclohexan-1-ol] | (6.99 ± 0.21) | affinity for 5-HT2A receptors (in words) (5-HT2A receptors): very weak affinity; Ki (5-HT2A receptors; [5]): > 10000 nM; EC50 (dopamine D2 receptors [4]; [6]): 44.7 nM; Emax (dopamine D2 receptors [4]): 27%; EC50 (dopamine D2 receptors [4]; [7]): 32.5 nM |
| – | – | 104% | – | CCOc1cccc2c3c(oc12)CN(CCCOc1ccc2c(c1)OCO2)CC3 [I-A31, 2-(3-(benzo[d][1,3]dioxol-5-yloxy)propyl)-8-ethoxy-1,2,3,4-tetrahydrobenzofuro[2,3-c]pyridine] | – | – |
| 605 nM | 2.81 nM | 38.4% | 33% | CCOc1cccc2c3c(oc12)CN(CCC1CC(NC(=O)N(C)C)C1)CC3 (centres unmarked) [I-A34, 3-(3-(2-(8-ethoxy-3,4-dihydrobenzofuro[2,3-c]pyridin-2(1H)-yl)ethyl)cyclobutyl)-1,1-dimethylurea] | – | Ki (dopamine D2 receptors [1]; read-out: Affinity pKi ± SEM (converted)): 617 nM |
| – | 206 nM | 75.9% | 21% | CCOc1cccc2c3c(oc12)CN(CCCn1ncc(=O)n(C)c1=O)CC3 [I-A44, 2-(3-(8-ethoxy-3,4-dihydrobenzofuro[2,3-c]pyridin-2(1H)-yl)propyl)-4-methyl-1,2,4-triazine-3,5(2H,4H)-dione] | – | – |
| 714 nM | 25.4 nM | 74.3% | 30% | CCOc1cccc2c3c(oc12)CN(CCCCN1C(=O)CC(C)(C)CC1=O)CC3 [I-A45, 1-(4-(8-ethoxy-3,4-dihydrobenzofuro[2,3-c]pyridin-2(1H)-yl)butyl)-4,4-dimethylpiperidine-2,6-dione] | (6.14 ± 0.15) | – |
| – | 213 nM | 98.5% | 31% | CCOc1cccc2c3c(oc12)CN(CCCCN1C(=O)CC2(CCCC2)CC1=O)CC3 [I-A46, 8-(4-(8-ethoxy-3,4-dihydrobenzofuro[2,3-c]pyridin-2(1H)-yl)butyl)-8-azaspiro[4.5]decane-7,9-dione] | – | – |
| 381 nM | – | 37.9% | – | CCOc1cccc2c3c([nH]c12)CN(CC[C@H]1CC[C@H](NC(=O)N(C)C)CC1)CC3 [I-B8, 3-(trans-4-(2-(8-ethoxy-1,3,4,9-tetrahydro-2H-pyrido[3,4-b]indol-2-yl)ethyl)cyclohexyl)-1,1-dimethylurea] | (6.41 ± 0.16) | – |
| – | – | 22.3% | – | CCOc1cccc2c3c([nH]c12)CN(CCC1CC(NC(=O)N(C)C)C1)CC3 (centres unmarked) [I-B11, 3-(3-(2-(8-ethoxy-1,3,4,9-tetrahydro-2H-pyrido[3,4-b]indol-2-yl)ethyl)cyclobutyl)-1,1-dimethylurea] | – | – |
